Experiments:
L-type calcium channel = experiment: Whole-cell patch clamp of L-type currents in Jurkat T cells; type: cell-based, human
Description: In these patch clamp experiments, Jurkat cells that were grown in suspension cultures were washed once with standard external solution and plated directly onto the experimental bath chamber. Cells were kept in a standard modified Ringer's solution of the following composition (in mM): […] pipette-filling solutions for voltage-gated L-type channels contained (in mM): […], the above solution was replaced by an otherwise identical extracellular solution in which 10 μM Bay K was added to the bath. Intracellular pipette-filling solutions for voltage-gated L-type channels in some cases contained (in mM): Cs-glutamate 120, NaCl 8, MgCl2 1, MgATP 2, NaGTP 0.3, Cs-BAPTA 10, Hepes-CsOH 10, pH 7.2. Patch clamp experiments were performed in the tight-seal whole-cell configuration at 24±2° C. High-resolution current recordings were acquired by a computer-based patch clamp amplifier system (EPC-9, HEKA, Lambrecht, Germany). Patch pipettes had resistances between 2-4 MΩ after filling with the standard intracellular solution. For L-type current measurements the holding potential was −80 mV and the duration of the ramp was 100 ms for optimal L-type current size. All voltages were corrected for a liquid junction potential of 10 mV between external and internal solutions. Currents were filtered at 2.3 kHz and digitized at 100 μs intervals. Capacitive currents and series resistance were determined and corrected before each voltage ramp using the automatic capacitance compensation of the EPC-9. For ICRAC analysis, the very first ramps prior to current activation were digitally filtered at 2 kHz, pooled and used for leak-subtraction of all subsequent current records. The low-resolution temporal development of currents at a given potential was extracted from the leak-corrected individual ramp current records by measuring the current amplitudes at voltages of −80 mV or +80 mV, respectively. Similarly, one of the first ramps could be used as leak-subtraction for L-type currents, as the currents developed over a time course of 6-8 seconds, indicating recovery from inactivation. Where applicable, statistical errors of averaged data are given as means±S.E.M. with n determinations and statistical significance was assessed by Student's t-test.
For measurements of the L-type current with barium as the charge carrier, whole cell voltage-clamp recordings were performed using an Axopatch 200 amplifier (Axon Instruments) in a bath consisting of 135 mM choline Cl, 10 mM HEPES, 1 mM MgCl2 and 20 mM BaCl2, adjusted to a pH of 7.2 with CsOH. The internal solution consisted of 135 mM CsCl, 10 mM HEPES, 1 mM EGTA, 1 mM EDTA, and 4 mM Mg-ATP, adjusted to a pH of 7.2 with CsOH. Pclamp 8 software was used for data acquisition (Axon Instruments). For square pulse protocols, data were filtered at 2 kHz and sampled at 10 kHz. Patch electrodes were 3.8-4.4 MΩ when filled with internal solution. Leak subtraction was performed online using a P/-4 protocol. 75% series resistance compensation was used with a 10 μs lag. Statistical references indicate the mean±s.e. After forming the whole-cell patch, cells were lifted off the bottom of the dish and placed in front of an array of perfusion tubes made of 250 μm internal diameter quartz tubing (Polymicro Technologies, Phoenix, Ariz.) connected by Teflon tubing to glass reservoirs. […]

L-type calcium channels = experiment: DM-BODIPY binding competition by flow cytometry in T cell leukemia cell lines; design: species or system human; details: ten-fold excess (S)-(−)-Bay K8644 over 1 μM DM-BODIPY; Jurkat, MOLT-4, CEM, Loucy, SUP-T1
Source text: In another method of determining whether a test compound is binding L-type channels, competition with DM-BODIPY dyes is used. Such assays employ DM-BODIPY (Molecular Probes, Eugene, […].), a dihydropyridine analog that is covalently attached to the BODIPY dye. The DM-BODIPY dye binds to L-type calcium channels on the cell surface and can be assessed by flow-cytometry. Accordingly, a test compound can be used in a competition assay with a DM-BODIPY dye. If the test compound is able to compete for binding of the DM-BODIPY dye to a cell expressing an LVCa(v) polypeptide, the test compound is a candidate compound for binding to the LVCa(v) polypeptide and being a modulator of the activity of that channel.
To ascertain the levels of L-type channel expression at the cell surface, cells were stained with an ester form of DM-BODIPY (Molecular Probes, Inc., Eugene, Oreg., catalog no. D-2183) at final concentration of 1 μM in PBS (phosphate buffered saline). Competition of DM-BODIPY binding was performed with a ten-fold excess (S)-(−)-Bay K8644 (Sigma-Aldrich). Analysis was performed using flow cytometry (Becton Dickinson). FIG. 22A illustrates the results of the DM-BODIPY binding experiments. […]

L-type channels [1] = experiment: Calcium flux in siRNA-expressing Jurkat cells; type: cell-based, human; details: pool of zeocin-resistant Jurkat clones
Description: To assess the effect of expressing the mutant three-domain Ca(v)1.3 on calcium influx in cells, bulk calcium assays were performed using fura-2 (Molecular Probes) ratiometric imaging according to the manufacturer's recommendations. Fura-2 is a calcium-sensitive dye. When excited at short ultra-violet wavelengths (340 nm) the fluorescence of fura-2 increases with increasing calcium concentration, whereas fluorescence decreases with increasing calcium concentration at longer wavelengths (380 nm). By forming a ratio of successive images obtained at each wavelength, a measure of calcium concentration inside the fura-2 loaded cell is obtained.
(§1) This consensus sequence was used in the design of a sequence that would express an siRNA for stable expression of a hairpin loop containing the consensus sequence. The sequence was cloned into the psiRNA-hHlzeo vector (Invitrogen, San Diego, Calif.), the sequence was verified, and Jurkat cells were transfected with it. To select clones that were positive for expression of the hairpin, 400 micrograms/ml of zeocin was added 24 hours after transfection. […] Independent, individual clones were also generated in parallel. […] Thus, loss of L-type channel expression also correlates with decreased proliferation of Jurkat T cells.

Jurkat T cells = experiment: Growth and cell numbers of siRNA-expressing Jurkat clones; type: cell-based, human
Description: as §1
Jurkat cells were stably transfected with each of the siRNA constructs and pools of clones of each were analyzed. RT-PCR was performed on samples from the clones to detect expression of Ca(v)1.3.

L-type channels [2] = experiment: DM-BODIPY staining (flow cytometry) of siRNA-expressing Jurkat cells; type: cell-based, human
Description: as §1
First, control wild type (WT) and L-type siRNA-expressing (LT1) Jurkat T cells were stained with DM-BODIPY and analyzed by flow cytometry (Un indicates unstained cells). The LT1 cells were transfected with an siRNA sequence that targets the majority of L-type channels, and was designed based on sequence consensus of the human L-type calcium channels.

For CCCCCCCCCCCCCC(=O)O[C@@H]1[C@@H](C)[C@@]2(O)[C@@H](C=C(CO)C[C@]3(O)C(=O)C(C)=C[C@@H]23)[C@@H]2C(C)(C)[C@]12OC(C)=O [PMA, phorbol 12-myristate 13-acetate], the L-type current amplitude (L-type calcium channel; Jurkat cells pre-treated with PMA) was “significantly increased”.

For COC(=O)C1=C(C)NC(C)=C([N+](=O)[O-])[C@H]1c1ccccc1C(F)(F)F [BayK8644, (S)-(−)-Bay K8644], the “DM-BODIPY binding competed by BayK8644” value (L-type calcium channels) was “competed”, the “reversibility of agonist effect when washed out” value (L-type calcium channel; Jurkat cells) was “reversible” and the “cells with discernible DHPR (L-type calcium channel) currents” value (L-type calcium channel; Jurkat cells tested in the presence of BayK8644) was “Five of eleven”. The average current densities (L-type calcium channel; Jurkat cells, 10 μM BayK8644, calcium as charge carrier, n=5, +/− s.e.m.) was 1+/−0.3 pA/pF and the peak current increase (L-type calcium channel; Jurkat cells, in presence of the L-type agonist, calcium as charge carrier) was “five-fold”.

“LT1 (DNA AACTGTGAGCTGGACAAGAA; chemistry not given here)” was tested, and the calcium flux (L-type channels [1]) was “marked decrease”, the growth of clones (Jurkat T cells; individual siRNA-expressing Jurkat clones) was “slow rate of growth” and the growth of clones (Jurkat T cells; individual siRNA-expressing Jurkat clones, listed as consensus sequence) was “grew very slowly”. The growth of clones (Jurkat T cells; pool of zeocin-resistant Jurkat clones, bulk culture) was “grew more slowly”, the “reduction in DM-BODIPY binding” value (L-type channels [2]; independent, individual Jurkat clones) was “approximately 90%” and the DM-BODIPY binding (L-type channels [2]; pool of zeocin-resistant Jurkat clones) was “decrease”. The “decrease of surface expression of L-type channels” value (L-type channels [2]; stable siRNA expression in Jurkat T cells, DM-BODIPY staining) was “about 90%”.
